# Experimental data reported in paper PMC4809600, “The Influence of Chronic Wound Extracts on Inflammatory Cytokine and Histatin Stability” (PLoS ONE, 2016).
# Test system: dermal fibroblasts
# Assay: Fibroblast wound healing scratch assay (migration)
# Type: cell-based, human
# Conditions: serum-free medium, histatins 5 μM, rhIL-6 125 ng/ml, rhCXCL8 250 ng/ml, (E0-E96)/(U0-U96), unexposed = 1; for Migration of dermal fibroblasts in scratch assay, 8 h exposure: 8 h exposure then 88 h without, read at 96 h; for Migration of dermal fibroblasts in scratch assay, 96 h exposure: continuous 96 h exposure
# Method: Dermal fibroblasts were isolated from healthy human abdominal skin from patients undergoing corrective abdominal plastic surgery. After removal of all adipose tissue, the skin was washed in PBS and incubated overnight on dispase II (Roche, Mannheim, Germany) at 4°C. The next day, epidermis was removed and discarded and the dermis was incubated in collagenase type II (Gibco, Life Technologies, Grand Island, USA)/dispase II in Hanks balanced salt solution (HBSS) (Gibco) at 37°C for 2–3 h. Fibroblast medium consisting of DMEM (Lonza, Verviers, Belgium) containing 1% ultroserG (UG) (Biosepra, Cergy-Saint-Christopher, France) and 1% penicillin-streptomycin (P/S) (Gibco) was added and the solution was passed through an 100 μm and 40 μm cell strainer (Becton Dickinson Falcon, Erembodegem, Belgium). A single cell suspension was seeded at ± 3.5 x 10^4 cells cm^2 and further cultured in fibroblast medium. Medium was changed twice a week and cultures were passaged when 90% confluent using 0.5mM EDTA/0.05% trypsin (Gibco). The cells were maintained at 37°C in a humidified atmosphere containing 5% CO2 and used for experiments at passage 3.
# A wound healing scratch assay was performed to determine the effect of histatins, rhIL-6 and rhCXCL8 on fibroblast migration. Confluent monolayers of fibroblasts in a 48-well plate (Costar, Corning Incorporated, New York, USA) were incubated with serum-free medium (DMEM containing 1% P/S and 0.1% bovine serum albumin (Sigma-Aldrich)) for 96 h to ensure minimum spontaneous migration. Next, a scratch was drawn with a disposable plastic pipette tip. Cultures were exposed to Hst1, cHst1, Hst2 and mad-Hst1 (all used at a concentration of 5μM), rhIL-6 (125 ng/ml), rhCXCL8 (250 ng/ml) and vehicle (H2O) in serum free medium. Two experimental set-ups were studied: i) cells were exposed only during the first 8 h to histatins and cytokines and then transferred to vehicle supplemented medium for an additional 88 h; or ii) cells were exposed to histatins and cytokines during the entire 96 h study period. Phase contrast micrographs were taken directly after drawing the scratch and after four days (96 h) of exposure. Data were analyzed using an image processing algorithm that has been described in detail in our previous work. The area of the scratch covered by migrating fibroblasts was determined using the following equation: (E0-E96)/(U0-U96), in which: E = exposure to a condition (IL-6, CXCL8 and histatins); U = unexposed (serum-free medium); E0 and U0 = area of the scratch at T = 0 h; E96 and U96 = area of the scratch (not covered with cells) after 96 h. In this way, in each exposed group (IL-6, CXCL8, histatins) the resurfaced area at 96 h is compared to its own 0 h time point and then set relative to the unexposed group (serum-free medium).
# [1] = experiment 1, average of four replicates
# [2] = experiment 2, average of four replicates
# [3] = experiment 3, average of four replicates
substance,measurement,setting,value
cyclo(DNLPETGGDSHEKRHHGYRRKFHEKHHSHREFPFYGDYGSNYLY) [cHst1],"Migration of dermal fibroblasts in scratch assay, 8 h exposure",[1],1.6
same,"Migration of dermal fibroblasts in scratch assay, 8 h exposure",[2],1.24
same,"Migration of dermal fibroblasts in scratch assay, 8 h exposure",[3],1.53
same,"Migration of dermal fibroblasts in scratch assay, 96 h exposure",[1],1.46
same,"Migration of dermal fibroblasts in scratch assay, 96 h exposure",[2],1.26
same,"Migration of dermal fibroblasts in scratch assay, 96 h exposure",[3],1.33
